Measured values reported in PMC3608651, “A Broad Profile of Co-Dominant Epitopes Shapes the Peripheral Mycobacterium tuberculosis Specific CD8+ T-Cell Immune Response in South African Patients with Active Tuberculosis” (PLoS ONE, 2013).
Where two headings read alike, the source gives them in different places.

How the values were obtained:
Format in all cases: binding
[1] = target: HLA-A*30:01 (Homo sapiens, UniProt P04439, D140H/D185E/E176W/F33S/G80R/H175R/K168Q/R138E/R41S); details: duplicated experiments, positive binder >40%
[2] = target: HLA-A*30:02 (Homo sapiens, UniProt P04439, D101N/D140H/D185E/E176R/F33S/G80R/H175R/K168Q/Q94H/R138E/R41S/V100E); details: duplicated experiments, positive binder >40%
[3] = target: HLA-A*02:01 (Homo sapiens, UniProt P04439, D140Y/D185E/D98H/E176V/E277Q/G131W/G231S/I119V/I121R/I166T/I218V/L300P/L318F/N151K/N90K/P208A/P217A/Q86G/Q94H/R138H/R169H/T345S); details: plate-bound monomer 0.5 µg/ml, duplicated experiments, positive binder >40%
[4] = target: HLA-A*68:01 (Homo sapiens, UniProt P04439, A269V/D185E/E176V/E277Q/E87N/F33Y/G231S/I121M/I166T/I218V/L180W/L300P/L318F/N151K/P208A/P217A/Q86R/R169H/T345S); details: duplicated experiments, positive binder >40%
[5] = target: HLA-C*07:01 (Homo sapiens, UniProt P10321, K90N/S123Y); details: duplicated experiments, positive binder >40%
[6] = target: HLA-B*07:02 (Homo sapiens, UniProt P01889); details: percent relative the binding of positive control peptide […]; duplicated experiments; positive binder >40%
[7] = target: HLA-B*58:01 (Homo sapiens, UniProt P01889, A329T/C349S/D201E/D98Y/E176V/E187L/E204Q/E69T/G107R/I218V/I90N/K202T/L105A/L119I/N104I/N87E/Q89R/Q94S/R106L/R155S/R180L/R86G/S101N/S121R/S35A/S48A/T118I/V127L/V306I/V36M/Y140S/Y91M); details: duplicated experiments, positive binder >40%
[8] = target: HLA-A*24:02 (Homo sapiens, UniProt P04439, D101N/D140Y/D185E/E176V/E190D/F33S/G103R/G107R/I119L/I121M/I306V/K335N/L105A/L180Q/L300P/N151K/N90K/Q86E/Q94H/R106L/R138H/R89G/T104I/T345S/V100E/W191G/Y123F); details: duplicated experiments, positive binder >40%
[9] = percent relative the binding of positive control peptide […]

Row | Substance | Bind A*30:01 [1, 9] | Bind A*30:02 [2, 9] | Bind A*02:01 [3, 9] | Bind A*68:01 [4, 9] | Bind C*07:01 [5, 9] | Bind B*07:02 [6] | Bind B*58:01 [7, 9] | Bind A*24:02 [8, 9] | Bind A*30:01 ([1]; percent relative the binding of positive control peptide KTKDIVNGL) | Bind A*30:02 ([2]; percent relative the binding of positive control peptide KIQNFRVYY) | Bind A*02:01 ([3]; percent relative the binding of positive control peptide FLPSDFFPSV) | Bind A*68:01 ([4]; percent relative the binding of positive control peptide KTGGPIYKR) | Bind C*07:01 ([5]; percent relative the binding of positive control peptide KYFDEHYEY) | Bind B*58:01 ([7]; percent relative the binding of positive control peptide IAMESIVIW) | Bind A*24:02 ([8]; percent relative the binding of positive control peptide RYLKDQQLL)
1 | SW EYW GAQL | 0% | 0% | 31% | 0% | 0% | 1% | 0% | 79% |  |  |  |  |  |  | 
2 | YSDWYSPAC | 15% | 2% | 59% | 18% | 5% | 0% | 85% | 0% |  |  |  |  |  |  | 
3 | ACGKAGCQT | 19% | 0% | 44% | 13% | 0% | 9% | 0% | 25% |  |  |  |  |  |  | 
4 | YNYPAMLDH [Rv0288_6–14m2] |  |  |  |  | 0% |  |  |  |  |  |  |  |  |  | 
5 | GLSMAGSSA | 0% | 0% | 75% | 0% | 0% | 31% | 0% | 0% |  |  |  |  |  |  | 
6 | W YYQ SG LSI | 18% | 0% | 37% | 0% | 13% | 6% | 0% | 143% |  |  |  |  |  |  | 
7 | NGW DINTPA | 8% | 0% | 87% | 4% | 14% | 21% | 0% | 36% |  |  |  |  |  |  | 
8 | ELPQW LSAN | 20% | 0% | 15% | 31% | 0% | 16% | 0% | 56% |  |  |  |  |  |  | 
9 | QSGLSIVMP | 34% | 0% | 30% | 0% | 43% | 0% | 0% | 0% |  |  |  |  |  |  | 
10 | GGANIPAEF | 0% | 70% | 4% | 0% | 5% | 0% | 57% | 0% |  |  |  |  |  |  | 
11 | AIQGNVTSI [Rv3875_17-25] |  |  |  |  |  | 4% |  |  | 0% | 49% | 45% | 29% | 14% | 21% | 9%
12 | ELGGANIPA | 0% | 0% | 47% | 0% | 0% | 0% | 0% | 0% |  |  |  |  |  |  | 
13 | VRSSNLKFQ | 0% | 0% | 5% | 14% | 61% | 10% | 7% | 23% |  |  |  |  |  |  | 
14 | LSANRAVKP | 49% | 15% | 17% | 0% | 24% | 11% | 0% | 27% |  |  |  |  |  |  | 
15 | TLQNLGAEI [Rv0288_24–32m1] |  |  | 26% |  |  |  |  | 4% |  |  |  |  |  |  | 
16 | TMLDHAGDM [Rv0288_10–18m3] |  | 0% | 24% |  |  |  |  | 14% |  |  |  |  |  |  | 
17 | DLVRAYHSM [Rv0288_64–72m1] |  |  |  | 4% |  |  |  | 0% |  |  |  |  |  |  | 
18 | YNYPTMLDH [Rv0288_6–14m3] |  |  |  |  | 0% |  |  |  |  |  |  |  |  |  | 
19 | QNLGAEIAV [Rv0288_26–34m1] |  |  | 28% |  |  |  | 0% |  |  |  |  |  |  |  | 
20 | VRAYHSMSS [Rv0288_66–74m1] |  |  |  |  | 3% |  |  |  |  |  |  |  |  |  | 
21 | YNYPTMLGH [Rv0288_6–14m1] |  |  |  |  | 0% |  |  |  |  |  |  |  |  |  | 
22 | NLGAEIAVE [Rv0288_27–35m1] |  |  | 29% |  |  |  |  |  |  |  |  |  |  |  | 
